These results are taken from publication PMC3946503, “Impact of the Smoothened Inhibitor, IPI-926, on Smoothened Ciliary Localization and Hedgehog Pathway Activity” (PLoS ONE, 2014).

The target in this assay is T1, Smoothened (Smo) (Homo sapiens, UniProt Q99835).
T1 construct: wild-type human Smo overexpressed in C3H10T1/2 cells
Kind of assay: BODIPY-cyclopamine competition binding on Smo-expressing cells, flow cytometry. It is filed as cell-based.

T1 sequence (Q99835 28-787): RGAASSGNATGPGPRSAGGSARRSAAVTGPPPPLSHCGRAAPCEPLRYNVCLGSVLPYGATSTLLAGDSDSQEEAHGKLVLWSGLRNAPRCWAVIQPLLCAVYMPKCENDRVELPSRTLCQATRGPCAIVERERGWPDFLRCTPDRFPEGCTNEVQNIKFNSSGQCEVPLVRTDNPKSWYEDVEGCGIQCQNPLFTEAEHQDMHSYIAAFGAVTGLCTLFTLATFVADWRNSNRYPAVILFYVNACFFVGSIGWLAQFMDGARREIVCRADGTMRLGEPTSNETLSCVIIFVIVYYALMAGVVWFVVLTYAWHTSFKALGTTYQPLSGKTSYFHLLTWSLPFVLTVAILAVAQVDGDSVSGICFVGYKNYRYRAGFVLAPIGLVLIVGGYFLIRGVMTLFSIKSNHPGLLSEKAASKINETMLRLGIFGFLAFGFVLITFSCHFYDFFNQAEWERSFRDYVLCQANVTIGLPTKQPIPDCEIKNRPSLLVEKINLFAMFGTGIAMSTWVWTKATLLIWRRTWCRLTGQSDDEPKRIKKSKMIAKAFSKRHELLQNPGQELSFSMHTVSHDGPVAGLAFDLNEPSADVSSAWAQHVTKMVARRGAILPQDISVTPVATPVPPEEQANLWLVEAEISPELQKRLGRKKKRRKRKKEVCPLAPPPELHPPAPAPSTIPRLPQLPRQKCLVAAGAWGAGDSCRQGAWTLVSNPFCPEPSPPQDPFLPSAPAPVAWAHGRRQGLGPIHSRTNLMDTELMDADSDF

In turn, `CC1=C2C[C@H]3[C@@H](CC[C@@H]4C[C@H](NS(C)(=O)=O)CC[C@@]43C)[C@@H]2CC[C@@]2(C1)O[C@@H]1C[C@H](C)CN[C@H]1[C@H]2C` [IPI-926] came in with a concentration for a half-maximal effect (EC50) of 1 nM. That is a single-digit nanomolar value.
